# Residues, ends and D or L forms follow the SMILES beside them.
# Columns and labels:
# [1] = target: T1, Mcl-1 (Mus musculus, UniProt P97287); conditions: cited from earlier work
# [2] = target: T2, Bcl-xL (Homo sapiens, UniProt Q07817); conditions: cited from earlier work
# [3] = tested on: Bcl-2; conditions: cited from earlier work
# [4] = target: T2, Bcl-xL; assay: Direct FP binding assay of fluorescein-conjugated peptides
# [5] = Stability in mouse serum; assay type: in vitro ADME; conditions: for half-life: mouse
# [6] = target: T1, Mcl-1; assay: Direct FP binding assay of fluorescein-conjugated peptides; conditions: read-out: Kd toward Mcl-1, N-terminal fluorescein-conjugated peptides
# [7] = tested on: Mcl-1-overexpressing U937 cells; conditions: for Activity in cell viability assay: U937 cells
# [8] = target: T1, Mcl-1; assay: Competitive fluorescence polarization; assay type: binding; conditions: competitive FP assay
# [9] = Far-UV CD measurement of percent helicity; assay type: physicochemical; conditions: for Percent helicity: 50 μM in ACN/H2O (1:1), calculated from [θ]222
# T1 sequence (P97287 whole entry): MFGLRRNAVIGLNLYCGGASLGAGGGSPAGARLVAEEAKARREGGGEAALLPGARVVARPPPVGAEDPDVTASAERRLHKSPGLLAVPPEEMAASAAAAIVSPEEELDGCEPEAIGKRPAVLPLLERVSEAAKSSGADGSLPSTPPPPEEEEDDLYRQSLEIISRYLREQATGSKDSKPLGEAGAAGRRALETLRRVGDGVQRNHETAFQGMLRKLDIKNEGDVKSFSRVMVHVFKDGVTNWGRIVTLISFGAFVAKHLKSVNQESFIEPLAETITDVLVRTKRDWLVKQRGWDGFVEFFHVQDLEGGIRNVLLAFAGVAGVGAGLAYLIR
# T2 sequence (Q07817 whole entry, species assumed): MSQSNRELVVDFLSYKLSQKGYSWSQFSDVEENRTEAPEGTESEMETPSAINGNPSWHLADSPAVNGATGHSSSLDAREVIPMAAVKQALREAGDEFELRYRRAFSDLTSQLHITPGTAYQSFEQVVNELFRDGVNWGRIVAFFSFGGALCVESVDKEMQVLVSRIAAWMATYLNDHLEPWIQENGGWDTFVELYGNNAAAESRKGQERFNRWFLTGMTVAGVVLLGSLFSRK
half-life [5],Increase in inhibitory activity compared to parent Noxa peptide [8],Increase in stability in mouse serum relative to linear Noxa peptide [5],Percent helicity [9],SMILES,"Activity in cell viability assay ([7]; 20 μM peptide, 48 hours)",other results
–,–,–,–,CN(C)CC[C@H](CSc1ccccc1)Nc1ccc(S(=O)(=O)NC(=O)c2ccc(N3CCN(Cc4ccccc4-c4ccc(Cl)cc4)CC3)cc2)cc1[N+](=O)[O-] [ABT-737],–,Binding to Mcl-1 [1]: poorly; Binding affinity to Bcl-xL [2]: subnanomolar affinity; Binding affinity to Bcl-2 [3]: subnanomolar affinity
–,65 fold,–,–,CC[C@H](C)[C@@H]1NC(=O)[C@H](CCCNC(=N)N)NC(=O)[C@H](CCCNC(=N)N)NC(=O)[C@H](CC(C)C)NC(=O)[C@@H](NC(=O)[C@H](C)NC(=O)[C@H](C)NC(C)=O)CSCc2ccc(cc2)-c2ccc(cc2)CSC[C@@H](C(=O)N[C@H](C(=O)N[C@@H](CC(N)=O)C(=O)N[C@@H](CC(C)C)C(=O)N[C@@H](CCCNC(=N)N)C(=O)N[C@@H](CCC(N)=O)C(=O)N[C@@H](CCCCN)C(=O)N[C@@H](CC(C)C)C(=O)N[C@@H](CC(C)C)C(=O)N[C@@H](CC(N)=O)C(N)=O)C(C)C)NC(=O)[C@H](CC(=O)O)NC(=O)CNC1=O [compound 1],no activity,–
–,12 fold,–,–,CC[C@H](C)[C@@H]1NC(=O)[C@H](CCCNC(=N)N)NC(=O)[C@H](CCCNC(=N)N)NC(=O)[C@H](CC(C)C)NC(=O)[C@H](NC(=O)[C@H](C)NC(=O)[C@H](C)NC(C)=O)CSCc2ccc(cc2)-c2ccc(cc2)CSC[C@@H](C(=O)N[C@H](C(=O)N[C@@H](CC(N)=O)C(=O)N[C@@H](CC(C)C)C(=O)N[C@@H](CCCNC(=N)N)C(=O)N[C@@H](CCC(N)=O)C(=O)N[C@@H](CCCCN)C(=O)N[C@@H](CC(C)C)C(=O)N[C@@H](CC(C)C)C(=O)N[C@@H](CC(N)=O)C(N)=O)C(C)C)NC(=O)[C@H](CC(=O)O)NC(=O)CNC1=O [compound 2],no activity,–
31.6 ± 2.2 h,–,180 fold,66%,"CC[C@H](C)[C@@H]1NC(=O)[C@H](C)NC(=O)[C@H](CCCNC(=N)N)NC(=O)[C@H](CC(C)C)NC(=O)[C@H](NC(=O)[C@H](C)NC(=O)[C@H](C)NC(C)=O)CSCc2ccc(cc2)-c2ccc(cc2)CSC[C@@H](C(=O)N[C@H](C(=O)N[C@@H](CC(N)=O)C(=O)N[C@@H](CC(C)C)C(=O)N[C@@H](C)C(=O)N[C@@H](CCC(N)=O)C(=O)N[C@@H](C)C(=O)N[C@@H](CC(C)C)C(=O)N[C@@H](CC(C)C)C(=O)N[C@@H](CC(N)=O)C(N)=O)C(C)C)NC(=O)[C@H](CC(=O)O)NC(=O)CNC1=O [compound 5] (HELM PEPTIDE1{[ac].A.A.[dC].L.R.A.I.G.D.C.V.N.L.A.Q.A.L.L.N.[am]}|CHEM1{[c1cc(-c2ccc(C[*:2])cc2)ccc1C[*:1]]}$PEPTIDE1,CHEM1,4:R3-1:R1|PEPTIDE1,CHEM1,11:R3-1:R2$$$V2.0)",–,"Increase in helicity, 5 compared to 2 [9]: more than twofold"
21.2 ± 2.6 h,–,121 fold,52%,"CC[C@H](C)[C@@H]1NC(=O)[C@H](C)NC(=O)[C@H](CCCNC(=N)N)NC(=O)[C@H](CC(C)C)NC(=O)[C@H](NC(=O)[C@H](C)N(C)C(=O)[C@H](C)N(C)C(=O)OC)CSCc2ccc(cc2)-c2ccc(cc2)CSC[C@@H](C(=O)N[C@H](C(=O)N[C@@H](CC(N)=O)C(=O)N[C@@H](CC(C)C)C(=O)N[C@@H](C)C(=O)N[C@@H](CCC(N)=O)C(=O)N[C@@H](C)C(=O)N[C@@H](CC(C)C)C(=O)N[C@@H](CC(C)C)C(=O)N[C@@H](CC(N)=O)C(N)=O)C(C)C)NC(=O)[C@H](CC(=O)O)NC(=O)CNC1=O [compound 8] (HELM PEPTIDE1{[COC(=O)[*:2]].[meA].[meA].[dC].L.R.A.I.G.D.C.V.N.L.A.Q.A.L.L.N.[am]}|CHEM1{[c1cc(-c2ccc(C[*:2])cc2)ccc1C[*:1]]}$PEPTIDE1,CHEM1,4:R3-1:R1|PEPTIDE1,CHEM1,11:R3-1:R2$$$V2.0)",–,EC50 ([7]; 48 h): 13400 nM

SMILES,half-life [5],Increase in inhibitory activity compared to parent Noxa peptide [8],Increase in stability in mouse serum relative to linear Noxa peptide [5],Percent helicity [9],"Activity in cell viability assay ([7]; 20 μM peptide, 48 hours)",other results
"CC[C@H](C)[C@H](NC(=O)[C@H](CCCNC(=N)N)NC(=O)[C@H](CCCNC(=N)N)NC(=O)[C@H](CC(C)C)NC(=O)[C@H](CCC(N)=O)NC(=O)[C@H](C)NC(=O)[C@H](C)NC(C)=O)C(=O)NCC(=O)N[C@@H](CC(=O)O)C(=O)N[C@@H](CCCCN)C(=O)N[C@H](C(=O)N[C@@H](CC(N)=O)C(=O)N[C@@H](CC(C)C)C(=O)N[C@@H](CCCNC(=N)N)C(=O)N[C@@H](CCC(N)=O)C(=O)N[C@@H](CCCCN)C(=O)N[C@@H](CC(C)C)C(=O)N[C@@H](CC(C)C)C(=O)N[C@@H](CC(N)=O)C(N)=O)C(C)C [Noxa, reference compound]",0.175 ± 0.0383 h,–,–,–,no activity,"Kd [4]: > 1000 nM; Kd [6]: 6.7 ± 1 nM; Cell viability ([7]; ATP assay, U937 cells in RPMI1640 with 5% FBS, 20 μM peptide, 48 hours): 97.6±0.9%"

# Source: PMC3472523 (Journal of the American Chemical Society, 2012)
